Where two headings read alike, the source gives them in different places.
How the values were obtained:
Erk2 = target: T1, Erk2 (Homo sapiens, UniProt P28482); experiment: Cell-free kinase assay (ALPHA technology), Erk2; format: biochemical; conditions: for IC50: at 10 μM ATP
T1 construct: in some cases as full-length kinases, in some cases as truncated fragments
Protocol: (§1) The controls were determined 16 fold. 0% controls contained no ATP whereas the 100% controls contained no test substance. The IC50 values were determined with GraphPadPrism.

Aurora-B = target: T2, Aurora-B (Homo sapiens, UniProt Q96GD4); experiment: Cell-free kinase assay (ALPHA technology), Aurora-B; format: biochemical
T2 construct: in some cases as full-length kinases, in some cases as truncated fragments; purchased Upstate/Millipore #14-835
T2 sequence (Q96GD4 whole entry, the tested form may be a part): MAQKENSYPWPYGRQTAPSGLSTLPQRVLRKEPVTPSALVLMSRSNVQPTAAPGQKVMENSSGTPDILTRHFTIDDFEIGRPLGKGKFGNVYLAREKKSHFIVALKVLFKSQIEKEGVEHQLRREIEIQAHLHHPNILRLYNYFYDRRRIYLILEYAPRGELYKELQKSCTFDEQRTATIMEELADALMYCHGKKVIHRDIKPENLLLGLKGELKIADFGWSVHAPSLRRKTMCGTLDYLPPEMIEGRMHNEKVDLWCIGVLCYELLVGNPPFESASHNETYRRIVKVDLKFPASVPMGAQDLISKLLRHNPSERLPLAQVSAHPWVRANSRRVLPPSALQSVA
Protocol: The kinase reaction was stopped by adding 10 μl of the ALPHA bead mix (10 μg/ml, #6760617/PerkinElmer), pre-incubated with anti-phospho PLK antibody (100 pM, #5070, Cell Signaling), in 25 mM Tris, 200 mM NaCl, 100 mM EDTA and 0.3% BSA, and left to stand overnight. The luminiscence was detected the next morning in a Envision instrument (Perkin Elmer). […] 0% controls contained no ATP whereas the 100% controls contained no test substance. The IC50 values were determined with GraphPadPrism.

cRaf-Mek1-Erk2 = cRaf-Mek1-Erk2 (Homo sapiens, UniProt P04049+P28482+Q02750); conditions: read-out: IC50 cRaf-Mek-Erk; at 10 μM ATP
Sequence of cRaf-Mek1-Erk2 (P04049 whole entry, the tested form may be a part): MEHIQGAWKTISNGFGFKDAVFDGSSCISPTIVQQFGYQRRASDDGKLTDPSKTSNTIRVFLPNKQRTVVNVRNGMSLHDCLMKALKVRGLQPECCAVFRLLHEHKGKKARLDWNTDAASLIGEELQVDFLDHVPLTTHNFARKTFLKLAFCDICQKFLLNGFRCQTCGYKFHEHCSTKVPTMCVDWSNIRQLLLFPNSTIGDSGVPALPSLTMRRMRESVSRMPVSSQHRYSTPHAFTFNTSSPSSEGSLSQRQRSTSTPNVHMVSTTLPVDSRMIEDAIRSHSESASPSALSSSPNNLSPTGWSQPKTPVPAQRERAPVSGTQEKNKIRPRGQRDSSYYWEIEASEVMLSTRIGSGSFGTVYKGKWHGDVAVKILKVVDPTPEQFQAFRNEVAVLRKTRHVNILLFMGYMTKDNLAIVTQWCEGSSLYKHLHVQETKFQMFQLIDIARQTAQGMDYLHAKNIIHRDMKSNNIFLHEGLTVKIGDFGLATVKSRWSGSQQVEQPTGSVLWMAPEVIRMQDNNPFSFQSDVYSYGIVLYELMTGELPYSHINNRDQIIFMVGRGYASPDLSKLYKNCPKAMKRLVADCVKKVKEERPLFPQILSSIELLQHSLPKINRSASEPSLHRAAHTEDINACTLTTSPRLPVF
Sequence of cRaf-Mek1-Erk2 (Q02750 whole entry, the tested form may be a part): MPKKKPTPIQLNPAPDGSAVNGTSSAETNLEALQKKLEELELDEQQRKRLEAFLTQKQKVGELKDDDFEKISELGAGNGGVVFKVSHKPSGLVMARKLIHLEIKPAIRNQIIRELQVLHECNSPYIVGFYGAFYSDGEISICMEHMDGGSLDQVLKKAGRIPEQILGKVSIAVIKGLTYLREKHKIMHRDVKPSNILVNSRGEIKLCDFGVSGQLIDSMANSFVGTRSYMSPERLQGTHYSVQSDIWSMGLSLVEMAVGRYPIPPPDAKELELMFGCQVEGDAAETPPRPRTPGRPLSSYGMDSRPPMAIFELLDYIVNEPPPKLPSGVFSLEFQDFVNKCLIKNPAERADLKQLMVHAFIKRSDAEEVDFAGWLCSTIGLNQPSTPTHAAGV
Sequence of cRaf-Mek1-Erk2 (P28482 2-360): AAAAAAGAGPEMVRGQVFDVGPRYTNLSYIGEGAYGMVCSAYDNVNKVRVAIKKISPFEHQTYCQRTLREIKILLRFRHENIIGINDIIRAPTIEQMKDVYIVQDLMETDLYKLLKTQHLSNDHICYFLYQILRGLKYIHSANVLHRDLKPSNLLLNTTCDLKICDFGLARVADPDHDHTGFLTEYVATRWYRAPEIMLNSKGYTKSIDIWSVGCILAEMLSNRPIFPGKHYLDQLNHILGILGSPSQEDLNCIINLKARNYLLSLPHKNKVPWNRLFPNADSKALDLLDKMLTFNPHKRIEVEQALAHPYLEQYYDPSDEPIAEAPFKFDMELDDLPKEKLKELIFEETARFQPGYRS
Protocol: The inhibitory effect of the inventive compounds was tested on various human serine/threonine kinases and tyrosine kinases in enzymatic assays. Recombinant human kinases, for example Aurora-B, cRaf-Mek1-Erk2, Erk2, Pim-1, HIPK1, KDR, TrkA, Yes, c-Abl and others were used, in some cases as full-length kinases, in some cases as truncated fragments—but at least consisting of the functional kinase domains. The commercial kinase proteins (Proqinase, Millipore) were used as recombinant fusion proteins with GST (glutathione S-transferase) tag or His tag. Depending on the substrate type, the different kinase reactions were quantified by suitable ALPHA™ beads (PerkinElmer).
The calculation of % inhibition values per substance concentration was done by means of the following formula from the raw data determined in the Envision reader:
as §1

[1] = at 10 μM ATP, read-out: IC50 Aurora-B
[2] = read-out: IC50 values against Aurora-B

T1 sequence (P28482 whole entry, the tested form may be a part): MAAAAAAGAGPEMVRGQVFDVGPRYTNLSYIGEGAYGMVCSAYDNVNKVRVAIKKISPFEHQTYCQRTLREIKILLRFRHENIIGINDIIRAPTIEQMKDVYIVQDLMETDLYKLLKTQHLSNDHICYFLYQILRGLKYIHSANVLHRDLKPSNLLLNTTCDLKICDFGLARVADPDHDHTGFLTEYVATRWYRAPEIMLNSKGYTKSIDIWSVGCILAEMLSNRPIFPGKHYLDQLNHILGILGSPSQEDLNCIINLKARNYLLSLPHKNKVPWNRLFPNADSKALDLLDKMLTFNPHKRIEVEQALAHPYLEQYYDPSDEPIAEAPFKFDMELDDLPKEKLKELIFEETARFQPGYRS

SMILES | IC50 (Erk2) [nM] | melting point [°C] | IC50 (Aurora-B; [1]) [nM] | IC50 (cRaf-Mek1-Erk2) [nM] | IC50 (Aurora-B; [2]) [nM] | dual activity against Aurora-B and Erk2 (or cRaf-Mek-Erk cascade respectively) (Erk2; in words)
CCNC(=O)Nc1ccnc2cc(-c3ccc(OC)c(OC)c3)cnc12 [Compound 7, 1-[7-(3,4-Dimethoxy-phenyl)-[1,5]naphthyridin-4-yl]-3-ethyl-urea] | > 100000 | 215 to 216 | 136 | ~100000 |  | 
COc1ccc(-c2cnc3ccc(NC(=O)NC(C)(C)C)nc3c2)cc1OC [Compound 3, 1-tert-Butyl-3-[7-(3,4-dimethoxy-phenyl)-[1,5]naphthyridin-2-yl]-urea] | 1720 | 279 to 280 | 805 | 1120 |  | dual activity
CCNC(=O)Nc1ccnc2cc(-c3cc(C)c(O)c(C)c3)cnc12 [Compound 16, 1-Ethyl-3-[7-(4-hydroxy-3,5-dimethyl-phenyl)-[1,5]naphthyridin-4-yl]-urea] | > 31600 | 213 to 214 | 3850 | > 31600 |  | 
CCNC(=O)Nc1ccnc2cc(-c3cc(Cl)c(O)c(Cl)c3)cnc12 [Compound 15, 1-[7-(3,5-Dichloro-4-hydroxy-phenyl)-[1,5]naphthyridin-4-yl]-3-ethyl-urea] | > 31600 | > 300 | 227 | 7850 |  | 
Cn1cc(-c2cnc3c(NC(=O)Nc4ccccc4)ccnc3c2)cn1 [Compound 23, 1-[7-(1-Methyl-1H-pyrazol-4-yl)-[1,5]naphthyridin-4-yl]-3-phenyl-urea] | > 100000 | 294 to 295 | 1260 | > 100000 |  | 

Next, values leading:

IC50 (Erk2) [nM] | melting point [°C] | IC50 (Aurora-B; [1]) [nM] | IC50 (cRaf-Mek1-Erk2) [nM] | IC50 (Aurora-B; [2]) [nM] | dual activity against Aurora-B and Erk2 (or cRaf-Mek-Erk cascade respectively) (Erk2; in words) | SMILES
> 31600 | 185 to 186 | 141 | 16900 |  |  | Cn1cc(-c2cnc3c(NC(=O)NCCCCc4ccccc4)ccnc3c2)cn1 [Compound 21, 1-[7-(1-Methyl-1H-pyrazol-4-yl)-[1,5]naphthyridin-4-yl]-3-(4-phenyl-butyl)-urea]
> 100000 | 127 to 129 | 28 | 2810 | < 100 |  | O=C(Nc1ccnc2cc(-c3cnn(CCN4CCOCC4)c3)cnc12)NC1CC1 [Compound 38, 1-Cyclopropyl-3-{7-[1-(2-morpholin-4-yl-ethyl)-1H-pyrazol-4-yl]-[1,5]naphthyridin-4-yl}-urea]
> 100000 | 223 to 224 | 13 | 7450 | < 100 |  | Cn1cc(-c2cnc3c(NC(=O)NC4CC4)ccnc3c2)cn1 [Compound 18, 1-Cyclopropyl-3-[7-(1-methyl-1H-pyrazol-4-yl)-[1,5]naphthyridin-4-yl]-urea]
> 100000 | 200 to 201 | 354 | > 31600 |  |  | Cn1cc(-c2cnc3c(NC(=O)NC4CCCCC4)ccnc3c2)cn1 [Compound 22, 1-Cyclohexyl-3-[7-(1-methyl-1H-pyrazol-4-yl)-[1,5]naphthyridin-4-yl]-urea]
4080 | 207 to 208 | 108 | 676 |  |  | Cn1cc(-c2cnc3c(NC(=O)NC4CCCC4)ccnc3c2)cn1 [Compound 34, 1-Cyclopentyl-3-[7-(1-methyl-1H-pyrazol-4-yl)-[1,5]naphthyridin-4-yl]-urea]
> 100000 | 215 to 216 | 48 | 2170 | < 100 |  | Cn1cc(-c2cnc3c(NC(=O)NC4CCC4)ccnc3c2)cn1 [Compound 17, 1-Cyclobutyl-3-[7-(1-methyl-1H-pyrazol-4-yl)-[1,5]naphthyridin-4-yl]-urea]
